Our source for the IC50 values is patent US11390609B2, “Rho-associated protein kinase inhibitor, pharmaceutical composition comprising same, and preparation method and use thereof” (BEIJING TIDE PHARMACEUTICAL CO., LTD., priority 2017, dated 2022).

The target of test [1] is ROCK1 (Homo sapiens (Human), UniProt Q13464). Kind of test: ROCK1 kinase IC50 assay (biological test method similar to the ROCK2 assay). It is filed as biochemical. The procedure, abridged: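 HTRF KinEASE-STK S2 assay with the STK-S2 biotinylated substrate and ATP, at 5× working solutions of 1.5 µM each. Kinase reaction with 9-point compound dilutions ran 2 h at room temperature, followed by 1 h streptavidin-XL665/Cryptate detection. The 665/615 nm ratio was normalised to no-compound and no-kinase wells, and IC50 was obtained by curve fitting.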
Sequence of ROCK1 (Q13464 whole entry, species assumed): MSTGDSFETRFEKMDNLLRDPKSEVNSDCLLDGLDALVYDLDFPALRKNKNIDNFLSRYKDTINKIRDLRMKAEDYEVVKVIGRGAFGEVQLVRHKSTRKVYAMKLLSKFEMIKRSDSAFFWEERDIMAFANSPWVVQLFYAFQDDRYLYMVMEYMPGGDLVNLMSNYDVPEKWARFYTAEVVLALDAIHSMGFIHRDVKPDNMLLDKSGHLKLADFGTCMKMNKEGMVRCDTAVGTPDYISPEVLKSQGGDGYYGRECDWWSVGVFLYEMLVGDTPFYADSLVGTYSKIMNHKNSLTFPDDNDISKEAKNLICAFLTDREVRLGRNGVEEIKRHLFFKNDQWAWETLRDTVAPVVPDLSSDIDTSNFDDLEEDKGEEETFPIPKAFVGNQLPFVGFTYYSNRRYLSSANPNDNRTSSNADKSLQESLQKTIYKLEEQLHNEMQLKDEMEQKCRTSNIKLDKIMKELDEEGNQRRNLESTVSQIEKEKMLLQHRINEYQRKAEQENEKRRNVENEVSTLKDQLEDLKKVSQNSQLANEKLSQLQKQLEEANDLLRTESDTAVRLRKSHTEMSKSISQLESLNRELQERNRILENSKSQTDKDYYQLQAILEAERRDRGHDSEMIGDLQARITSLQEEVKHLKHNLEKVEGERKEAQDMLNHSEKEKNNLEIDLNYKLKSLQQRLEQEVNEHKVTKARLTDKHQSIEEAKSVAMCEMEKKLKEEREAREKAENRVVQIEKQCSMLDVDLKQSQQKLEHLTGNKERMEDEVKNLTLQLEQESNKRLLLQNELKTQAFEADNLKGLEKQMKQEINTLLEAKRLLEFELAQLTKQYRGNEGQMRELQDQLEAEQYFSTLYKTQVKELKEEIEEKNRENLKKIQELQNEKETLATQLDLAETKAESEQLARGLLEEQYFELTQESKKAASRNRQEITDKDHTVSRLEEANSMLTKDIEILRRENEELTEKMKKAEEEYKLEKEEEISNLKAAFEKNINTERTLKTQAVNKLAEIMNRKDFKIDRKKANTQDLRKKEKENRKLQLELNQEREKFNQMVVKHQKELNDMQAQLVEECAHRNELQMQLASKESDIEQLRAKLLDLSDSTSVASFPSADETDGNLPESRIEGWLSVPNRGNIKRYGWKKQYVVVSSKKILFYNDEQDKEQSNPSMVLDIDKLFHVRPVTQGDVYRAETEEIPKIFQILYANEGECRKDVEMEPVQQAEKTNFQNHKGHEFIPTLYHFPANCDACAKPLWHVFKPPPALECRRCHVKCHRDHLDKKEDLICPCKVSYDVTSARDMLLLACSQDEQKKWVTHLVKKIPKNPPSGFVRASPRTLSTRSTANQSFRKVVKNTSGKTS

In test [2] the target is ROCK2 (Homo sapiens, UniProt O75116). Briefly: ROCK2 kinase IC50 assay (CISBIO HTRF KinEASE-STK S2 kit). The settings on record: incubated at room temperature for 2 hours. In kind it is biochemical. An outline of the steps:
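HTRF KinEASE-STK S2 format with recombinant ROCK2 (1.4 ng per well), STK-S2 substrate and ATP from 5× working solutions of 1.5 μM each, run 2 h at room temperature. Nine-point dilutions from 10000 nM top concentration; 665/615 nm emission ratio normalised to no-compound and no-kinase controls, curve-fitted for IC50.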
In general terms: In TR-FRET formats the signal depends on donor and acceptor labels being close together.

One may read the IC50 as the concentration at which inhibition is half-maximal. Take `CC(C)(C)OC(=O)N1Cc2ccc(-c3nccc(Nc4ccc(-c5cn[nH]c5)cc4)n3)cc2C1` [TDI01557B, tert-butyl 5-(4-((4-(1H-pyrazol-4-yl)phenyl)amino)pyrimidin-2-yl)isoindoline-2-carboxylate]: the IC50 is over 10000 nM in test [1] and 49 nM in test [2].

Consider `O=C(C1CC(O)C1)N1Cc2ccc(-c3nccc(Nc4ccc(-c5cn[nH]c5)cc4)n3)cc2C1` (stereo not shown) [TDI01561, (5-(4-((4-(1H-pyrazol-4-yl)phenyl)amino)pyrimidin-2-yl)isoindolin-2-yl)(3-hydroxycyclobutyl) methanone], for which the IC50 was over 10000 nM in test [1] and 205 nM in test [2].

As for `O=C(OCc1ccccc1)N1Cc2ccc(-c3nccc(Nc4ccc(-c5cn[nH]c5)cc4)n3)cc2C1` [TDI01559, benzyl 5-(4-((4-(1H-pyrazol-4-yl)phenyl)amino)pyrimidin-2-yl)isoindolin-2-carboxylate], the IC50 is over 10000 nM in test [1] and 170 nM in test [2].

`O=C(Nc1ccncc1Cl)N1Cc2ccc(-c3nccc(Nc4ccc5[nH]ncc5c4)n3)cc2C1` [TDI01374, 5-(4-((1H-indazol-5-yl)amino)pyrimidin-2-yl)-N-(3-chloropyridin-4-yl)isoindoline-2-carboxamide]: the IC50 in test [1] was over 10000 nM; in test [2], 64 nM.

`O=C(c1cc2ccc(-c3nccc(Nc4ccc(-c5cn[nH]c5)cc4)n3)cc2[nH]1)N1C[C@@H](F)[C@@H](F)C1` [TDI01477, (6-(4-((4-(1H-pyrazol-4-yl)phenyl)amino)pyrimidin-2-yl)-1H-indol-2-yl)((3S,4R)-3,4-difluoropyrrolidin-1-yl)methanone]: the figures for the concentration for half-maximal inhibition (IC50) in test [1] and in test [2] were 1130 nM and 47 nM, respectively.

For the compound `O=C(CC1CCOC1)N1Cc2ccc(-c3nccc(Nc4ccc(-c5cn[nH]c5)cc4)n3)cc2C1` (stereo not shown) [TDI01597B, 1-(5-(4-((4-(1H-pyrazol-4-yl)phenyl)amino)pyrimidin-2-yl)isoindolin-2-yl)-2-(tetrahydrofuran-3-yl)ethan-1-one], the IC50 was over 10000 nM in test [1] and 123 nM in test [2].

`O=C(c1cc2ccc(-c3nc(Nc4ccc5[nH]ncc5c4)c4sccc4n3)cc2[nH]1)N1CCC2(CCNCC2)CC1` [TDI01404, (6-(4-((1H-indazol-5-yl)amino)-thieno[3,2-d]pyrimidin-2-yl)-1H-indol-2-yl)(3,9-diazaspiro[5.5]undecan-3-yl)methanone]: the results for the 50% inhibitory concentration (IC50) in test [1] and in test [2] were 1520 nM and 35 nM, respectively.

Regarding `Cn1c(C(=O)N2C[C@@H](O)[C@H](F)C2)cc2ccc(-c3nccc(Nc4ccc(-c5cn[nH]c5)cc4)n3)cc21` [TDI01518, (6-(4-((4-(lH-pyrazol-4-yl)phenyl)amino)pyrimidin-2-yl)-1-methyl-1H-indol-2-yl)((3R,4R)-3-fluoro-4-hydroxypyrrolidin-1-yl)methanone], the IC50 in test [1] is 3030 nM; in test [2], 78 nM.

Consider `O=C(c1cc2ccc(-c3nccc(Nc4ccc(-c5cn[nH]c5)cc4)n3)cc2[nH]1)N1CC[C@H](O)C1` [TDI01438, (S)-(6-(4-((4-(1H-pyrazol-4-yl)phenyl)amino)pyrimidin-2-yl)-1H-indol-2-yl)(3-hydroxypyrrolidin-1-yl)methanone], for which the IC50 was over 10000 nM in test [1] and 402 nM in test [2].

Turning to `Cn1c(C(=O)N2CC(F)(F)C2)cc2ccc(-c3ncnc(Nc4ccc(-c5cn[nH]c5)cc4)n3)cc21` [TDI01532, (6-(4-((4-(1H-pyrazol-4-yl)phenyl)amino)-1,3,5-triazin-2-yl)-1-methyl-1H-indol-2-yl)(3,3-difluoroazetidin-1-yl)methanone], the figures for the IC50 in test [1] and in test [2] were over 10000 nM and 49 nM, respectively.

Consider `O=C(c1cc2ccc(-c3nccc(Nc4ccc5[nH]ncc5c4)n3)cc2[nH]1)N1CCC2(CCNCC2)CC1` [TDI01360, (6-(4-((1H-indazol-5-yl)amino)-pyrimidin-2-yl)-1H-indol-2-yl)(3.9-diazaspiro[5.5]undecan-3-yl)methanone], for which the IC50 in test [1] came out at 1470 nM; in test [2], 26 nM.

In the case of `O=C(C1CC2(CCNCC2)C1)N1Cc2ccc(-c3nccc(Nc4ccc(-c5cn[nH]c5)cc4)n3)cc2C1` [TDI01546, (5-(4-((4-(1H-pyrazol-4-yl)phenyl)amino)pyrimidin-2-yl)isoindolin-2-yl)(7-azaspiro[3.5]nonan-2-yl)methanone], the results for the IC50 in test [1] and in test [2] were 1550 nM and 26 nM, respectively.

Regarding `O=C(OC1CCC(F)(F)CC1)N1CCc2cc(-c3nccc(Nc4ccc(-c5cn[nH]c5)cc4)n3)ccc2C1` [TDI01656, 4,4-difluorocyclohexyl 6-(4-((4-(1H-pyrazol-4-yl)phenyl)amino)pyrimidin-2-yl)-3,4-dihydroisoquinoline-2(1H)-carboxylate], the results for the IC50 in test [1] and in test [2] were over 10000 nM and 442 nM, respectively.

With `O=C(C1CC(F)(F)C1)N1Cc2ccc(-c3nccc(Nc4ccc5[nH]ncc5c4)n3)cc2C1` [TDI01967, (5-(4-((1H-indazol-5-yl)amino)pyrimidin-2-yl)isoindolin-2-yl)(3,3-difluorocyclobutyl) methanone], the values for the IC50 in test [1] and in test [2] were over 10000 nM and 45 nM, respectively.

In the case of `O=C(c1cc2ccc(-c3nc(Nc4ccc(-c5cn[nH]c5)cc4)c4sccc4n3)cc2[nH]1)N1CC(F)(F)C1` [TDI01472, (6-(4-((4-(1H-pyrazol-4-yl)phenyl)amino)thieno [3,2-d]pyrimidin-2-yl)-1H-indol-2-yl)(3,3-difluoroazetidin-1-yl)methanone], the IC50 is over 10000 nM in test [1] and 174 nM in test [2].

Consider `CN(CC(F)(F)F)C(=O)c1cc2ccc(-c3nccc(Nc4ccc(-c5cn[nH]c5)cc4)n3)cc2s1` [TDI01428, 6-(4-((4-(1H-pyrazol-4-yl)phenyl)-amino)-pyrimidin-2-yl)-N-methyl-N-(2,2,2-trifluoroethyl)-benzo[b]-thiophene-2-carboxamide], for which the IC50 in test [1] was over 10000 nM; in test [2], 69 nM.

As for `Cn1c(C(=O)N2CCC3(C2)CC3(F)F)cc2ccc(-c3nccc(Nc4ccc(-c5cn[nH]c5)cc4)n3)cc21` (stereo not shown) [TDI01513, (6-(4-{(4-(1H-pyrazol-4-yl)phenyl)amino)pyrimidin-2-yl)-1-methyl-1H-indol-2-yl)(1,1-difluoro-5-azaspiro[2.4]heptan-5-yl)methanone], the figures for the half-inhibitory concentration (IC50) in test [1] and in test [2] were 7420 nM and 269 nM, respectively.

Take `O=C(N1CCc2cc(-c3nccc(Nc4ccc(-c5cn[nH]c5)cc4)n3)ccc2C1)N1CC(F)(F)C1` [TDI01959, (6-(4-((4-(1H-pyrazol-4-yl)phenyl)amino)pyrimidin-2-yl)-3,4-dihydroisoquinolin-2(1H)-yl)(3,3-difluoroazetidin-1-yl)methanone]: the IC50 in test [1] was over 10000 nM; in test [2], 131 nM.

Regarding `CC1(C#N)CN(C(=O)c2cc3ccc(-c4nccc(Nc5ccc(-c6cn[nH]c6)cc5)n4)cc3[nH]2)C1` [TDI01461, 1-(6-(4-((4-(1H-pyrazol-4-yl)phenyl)amino)pyrimidin-2-yl)-1H-indole-2-carbonyl)-3-methylazetidine-3-carbonitrile], the IC50 came out at 4530 nM in test [1] and 140 nM in test [2].

Turning to `Cn1c(C(=O)N2CC(O)(C(F)(F)F)C2)cc2ccc(-c3nccc(Nc4ccc(-c5cn[nH]c5)cc4)n3)cc21` [TDI01523, (6-(4-((4-(1H-pyrazol-4-yl)phenyl)amino)pyrimidin-2-yl)-1-methyl-1H-indol-2-yl)(3-hydroxy-3-(trifluoromethyl)azetidin-1-yl)methanone], the IC50 in test [1] worked out at 1890 nM; in test [2] it was 86 nM.

As to `O=C(c1cc2ccc(-c3nccc(Nc4ccc(-c5cn[nH]c5)cc4)n3)cc2[nH]1)N1CC(O)C1` [TDI01437, (6-(4-((4-(1H-pyrazol-4-yl)phenyl)amino)pyrimidin-2-yl)-1H-indol-2-yl)(3-hydroxyazetidin-1-yl)methanone], the results for the IC50 in test [1] and in test [2] were over 10000 nM and 247 nM, respectively.

Take `Cn1c(C(=O)N2CC(F)(F)C2)cc2ccc(-c3nc(Nc4ccc(-c5cn[nH]c5)cc4)c4ccccc4n3)cc21` [TDI01918, (6-(4-((4-(1H-pyrazol-4-yl)phenyl)amino)quinazolin-2-yl)-1-methyl-1H-indol-2-yl)(3,3-difluoroazetidin-1-yl)methanone]: the values for the IC50 in test [1] and in test [2] were over 10000 nM and 165 nM, respectively.

Take `Cn1c(C(=O)N2CC(F)(F)C2)cc2ccc(-c3nc(Nc4ccc(-c5cn[nH]c5)cc4)c4c(n3)OCCO4)cc21` [TDI01851, (6-(4-((4-(1H-pyrazol-4-yl)phenyl)amino)-6,7-dihydro-[1,4]dioxino[2,3-d]pyrimidin-2-yl)-1-methyl-1H-indol-2-yl)(3,3-difluoroazetidin-1-yl)methanone]: the half-inhibitory concentration (IC50) in test [1] was over 10000 nM; in test [2], 15 nM.

For `CN1CCC[C@H]1C(=O)N1Cc2ccc(-c3nccc(Nc4ccc(-c5cn[nH]c5)cc4)n3)cc2C1` [TDI01968A, 5-(4-((4-(1H-pyrazol-4-yl)phenyl)amino)pyrimidin-2-yl)-2-(methyl-L-prolyl)isoindoline], the IC50 was over 10000 nM in test [1] and 296 nM in test [2].

Take `O=C(C1CC(F)(F)C1)N1CCc2cc(-c3ncc(F)c(Nc4ccc(-c5cn[nH]c5)cc4)n3)ccc2C1` [TDI01596, (6-(4-((4-(1H-pyrazol-4-yl)phenyl)amino)-5-fluoropyrimidin-2-yl)-3,4-dihydroisoquinolin-2(1H)-yl)(3,3-difluorocyclobutyl)methanone]: the IC50 is over 10000 nM in test [1] and 275 nM in test [2].

Consider `Cc1[nH]ncc1-c1ccc(Nc2ccnc(-c3ccc4cc(C(=O)N5CC(F)(F)C5)n(C)c4c3)n2)cc1` [TDI01955, (3,3-difluoroazetidin-1-yl)(1-methyl-6-(4-((4-(5-methyl-1H-pyrazol-4-yl)phenyl)amino)pyrimidin-2-yl)-1H-indol-2-yl)methanone], for which the IC50 in test [1] is over 10000 nM; in test [2] it was 33 nM.
